The values that follow come from patent US20160368895A1, “PULMONARY HYPERTENSION TREATING AGENT” (THE UNIVERSITY OF TOKYO, priority 2013, published 2016).

In test [1] the target is T1, human PGI2 receptors (hIP) (Homo sapiens, UniProt P43119).
T1 construct: expressed in transfected cells; host or cells: CHO-K1
Put plainly: Method A: positive allosteric modulator activity, cAMP in CHO/hIP cells with 100 pM iloprost. Particulars: cAMP relative to 100 pM iloprost alone. It counts as cell-based. The method, then: The positive allosteric modulator activity of a test compound was measured as a change in the amount of intracellular cyclic AMP (cAMP) in the presence of 100 pM of the IP agonist iloprost (manufactured by CAYMAN CHEMICAL), using CHO-K1 cells (CHO/hIP cells) in which human PGI2 receptors (hIP) are stably expressed.
An amount of 5 μL of a mixture (diluted in F-12 culture medium (manufactured by GIBCO) including 0.1% BSA) of iloprost dissolved in DMSO and a test compound dissolved in DMSO was dispensed in advance into a 384-well black microplate, and 5 μL of CHO/hIP cells suspended at a concentration of 1.6×10^6 cells/mL in F-12 culture medium including 0.1% BSA were added to the microplate. After 40 minutes of incubation at room temperature, the amount of cAMP was measured using a cAMP assay kit (cAMP HiRange, manufactured by Cisbio Bioassays). Specifically, 5 μL of a cAMP-d2 solution (including a cell lysate) from the kit were added and the reaction was stopped, then 5 μL of a fluorescence-labeled cAMP antibody solution from the kit was added and incubation was performed for 1 hour at room temperature, after which fluorescence was measured using a PHERAstar plate reader (manufactured by BMG) in HTRF (registered trademark) mode. The amount of cAMP in each well was calculated from a cAMP calibration curve obtained using a standard sample, and the activity of each test compound is noted below as a ratio T/C (%) based on the amount of cAMP for 100 pM of isoprost alone. All of the compounds included in this table were purchased from Asinex Corporation.

For test [2], the target named is T1, human PGI2 receptors (hIP). Put plainly: Method C: effect on epoprostenol-cAMP production curve in CHO/hIP cells (left shift value). In kind it is cell-based. Particulars: Table 4, concentration of test compound that halves the EC50 of epoprostenol. The method, then: The effect of a test compound on the cAMP production curve with respect to the IP agonist epoprostenol (manufactured by GlaxoSmithKline) was investigated using CHO-K1 cells (CHO/hIP cells) in which human PGI2 receptors (hIP) are stably expressed.
An amount of 5 μL of a mixture (diluted in F-12 culture medium (manufactured by GIBCO) including 0.1% BSA) of epoprostenol dissolved in DMSO and a test compound dissolved in DMSO was dispensed in advance into a 384-well black microplate, and 5 μL of CHO/hIP cells suspended at a concentration of 1.4×10^6 cells/mL in F-12 culture medium including 0.1% BSA were added to the microplate. After 40 minutes of incubation at room temperature, the amount of cAMP was measured using a cAMP assay kit (cAMP HiRange, manufactured by Cisbio Bioassays). Specifically, 5 μL of a cAMP-d2 solution (including a cell lysate) from the kit were added and the reaction was stopped, then 5 μL of a fluorescence-labeled cAMP antibody solution from the kit were added and incubation was performed for 1 hour at room temperature, after which fluorescence was measured using a PHERAstar plate reader (manufactured by BMG) in HTRF (registered trademark) mode. The amount of cAMP in each well was calculated from a cAMP calibration curve obtained using a standard sample, and an epoprostenol-cAMP production curve for the presence of various concentrations of the test compound was created.

The structures appear in SMILES notation.

T1 sequence (P43119 whole entry): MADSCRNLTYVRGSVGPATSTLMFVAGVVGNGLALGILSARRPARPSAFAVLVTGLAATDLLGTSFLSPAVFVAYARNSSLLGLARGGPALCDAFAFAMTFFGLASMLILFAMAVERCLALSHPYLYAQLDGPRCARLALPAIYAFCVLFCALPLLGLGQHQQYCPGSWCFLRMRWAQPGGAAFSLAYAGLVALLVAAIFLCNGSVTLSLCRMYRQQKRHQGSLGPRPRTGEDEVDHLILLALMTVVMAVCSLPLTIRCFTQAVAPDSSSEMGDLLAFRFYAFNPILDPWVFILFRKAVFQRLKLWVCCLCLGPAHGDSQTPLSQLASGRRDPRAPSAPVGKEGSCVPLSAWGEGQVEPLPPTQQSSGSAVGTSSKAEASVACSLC

Consider `Cc1ccc(Cn2nnnc2C(c2ccccc2)N2CCc3ccccc3C2)cc1` (stereo not shown), for which the T/C % in test [1] (test compound 10 uM) is reported as 117%. Regarding `CCC(C)(C)n1nnnc1C(c1ccccc1)N1CCc2ccccc2C1` (stereo not shown), the T/C % in test [1] (test compound 10 uM) is recorded as 202%. Same read-out and setting: the same measure for `CN(C)c1ccc(C(c2nnnn2C2CCCC2)N2CCc3ccccc3C2)cc1` (stereo not shown): 103%. The same measure, in the same setting: the same measure for `COc1ccc(OC)c(C(c2nnnn2C(C)(C)C)N2CCc3ccccc3C2)c1` (stereo not shown): 100%; for `COc1ccc(C(c2nnnn2CS(=O)(=O)c2ccc(C)cc2)N2CCc3ccccc3C2)cc1` (stereo not shown): 101%; for `Cc1ccc(C(c2nnnn2C2CCCCC2)N2CCc3ccccc3C2)cc1` (stereo not shown): 100%.

As for `Clc1ccc(C(c2nnnn2C2CCCC2)N2CCc3ccccc3C2)cc1` (stereo not shown), the T/C % in test [1] (test compound 10 uM) turned out to be 110%.

Take `COc1ccc(C(c2nnnn2C(C)(C)C)N2CCc3ccccc3C2)cc1OC` (stereo not shown): in test [1] (test compound 10 uM), the T/C % was found to be 103%. On the same count and under the same terms, the same measure for `CCC(C)(C)n1nnnc1C(c1ccc(OC)c(OC)c1)N1CCc2ccccc2C1` (stereo not shown): 103%; for `COc1ccc(C(c2nnnn2CCc2ccccc2)N2CCc3ccccc3C2)c(OC)c1` (stereo not shown): 106%; for `Fc1ccc(C(c2nnnn2C2CCCCC2)N2CCc3ccccc3C2)cc1` (stereo not shown): 104%. Still for that read-out and setting: the same measure for `c1ccc(Cn2nnnc2C(c2ccccc2)N2CCc3ccccc3C2)cc1` (stereo not shown): 112%; for `CCC(C)(C)n1nnnc1C(c1ccc(Cl)cc1)N1CCc2ccccc2C1` (stereo not shown): 148%; for `CCC(C)(C)n1nnnc1C(c1ccc(F)cc1)N1CCc2ccccc2C1` (stereo not shown): 155%. Still for that read-out and setting: the same measure for `COc1ccc(C(c2nnnn2CCc2ccccc2)N2CCc3ccccc3C2)cc1OC` (stereo not shown): 106%. On to `COc1ccc(C(c2nnnn2Cc2ccccc2)N2CCc3ccccc3C2)c(OC)c1` (stereo not shown), for which the T/C % in test [1] (test compound 10 uM) turned out to be 103%. In the case of `COCCn1nnnc1C(c1ccc(O)cc1OC)N1CCc2ccccc2C1` (stereo not shown), the T/C % in test [1] (test compound 10 uM) is recorded as 97%.

On to `COc1ccc(OC)c(C(c2nnnn2C2CCCCC2)N2CCc3ccccc3C2)c1` (stereo not shown), for which, in test [1] (test compound 10 uM), the T/C % is listed as 82%.

On to `COc1ccc(OC)c(C(c2nnnn2Cc2ccccc2)N2CCc3ccccc3C2)c1` (stereo not shown), for which the T/C % in test [1] (test compound 10 uM) came to 90%. Still for that read-out and setting: the same measure for `COc1ccc(OC)c(C(c2nnnn2Cc2ccc(C)cc2)N2CCc3ccccc3C2)c1` (stereo not shown): 91%; for `COCCn1nnnc1C(c1cc(OC)ccc1OC)N1CCc2ccccc2C1` (stereo not shown): 90%; for `Cc1ccc(Cn2nnnc2C(c2ccc(Cl)cc2)N2CCc3ccccc3C2)cc1` (stereo not shown): 109%. As for `Cc1ccc(C(c2nnnn2CCc2ccccc2)N2CCc3ccccc3C2)cc1` (stereo not shown), in test [1] (test compound 10 uM), the T/C % was determined as 108%. On the same count and under the same terms, under `Oc1ccc(C(c2nnnn2C2CCCCC2)N2CCc3ccccc3C2)cc1` (stereo not shown) stands 104%. On the same count and under the same terms, the same measure for `Oc1ccc(C(c2nnnn2Cc2ccc(F)cc2)N2CCc3ccccc3C2)cc1` (stereo not shown): 113%; for `COc1cc(C(c2nnnn2C2CCCCC2)N2CCc3ccccc3C2)ccc1O` (stereo not shown): 97%; for `COc1cc(C(c2nnnn2Cc2ccccc2)N2CCc3ccccc3C2)ccc1O` (stereo not shown): 94%. Molecule `COc1cc(C(c2nnnn2Cc2ccc(F)cc2)N2CCc3ccccc3C2)ccc1O` (stereo not shown) came in with a T/C % in test [1] (test compound 10 uM) of 91%. Same read-out and setting: the same measure for `COc1cc(C(c2nnnn2CCc2ccccc2)N2CCc3ccccc3C2)ccc1O` (stereo not shown): 91%; for `Cc1ccc(C(c2nnnn2C2CCCC2)N2CCc3ccccc3C2)cc1` (stereo not shown): 105%. On the same count and under the same terms, under `Cc1ccc(C(c2nnnn2Cc2ccc(F)cc2)N2CCc3ccccc3C2)cc1` (stereo not shown) stands 117%; under `COc1ccc(Cn2nnnc2C(c2ccccc2)N2CCc3ccccc3C2)cc1` (stereo not shown), 104%; under `Cc1ccc(Cn2nnnc2C(c2ccc(F)cc2)N2CCc3ccccc3C2)cc1` (stereo not shown), 106%. Same read-out and setting: the same measure for `Fc1ccc(C(c2nnnn2CCc2ccccc2)N2CCc3ccccc3C2)cc1` (stereo not shown): 103%; for `COc1ccc(C(c2nnnn2Cc2ccccc2)N2CCc3ccccc3C2)cc1` (stereo not shown): 110%; for `COc1ccc(Cn2nnnc2C(c2ccc(OC)cc2)N2CCc3ccccc3C2)cc1` (stereo not shown): 105%. `COc1ccc(C(c2nnnn2Cc2ccccc2)N2CCc3ccccc3C2)cc1OC` (stereo not shown) had a T/C % in test [1] (test compound 5 uM) of 90%.

In turn, `COc1ccc(C(c2nnnn2Cc2ccc(F)cc2)N2CCc3ccccc3C2)cc1OC` (stereo not shown) came in with a T/C % in test [1] (test compound 10 uM) of 96%. `COc1ccc(C(c2nnnn2C2CCCCC2)N2CCc3ccccc3C2)cc1OC` (stereo not shown) gave a T/C % in test [1] (test compound 10 uM) of 87%. Same read-out and setting: the same measure for `COc1ccc(C(c2nnnn2C2CCCC2)N2CCc3ccccc3C2)cc1OC` (stereo not shown): 93%; for `COc1ccc(C(c2nnnn2C2CCCCC2)N2CCc3ccccc3C2)cc1` (stereo not shown): 111%; for `Fc1ccc(C(c2nnnn2C2CCCC2)N2CCc3ccccc3C2)cc1` (stereo not shown): 108%. Still for that read-out and setting: the same measure for `COc1ccc(OC)c(C(c2nnnn2CCc2ccccc2)N2CCc3ccccc3C2)c1` (stereo not shown): 78%; for `CCC(C)(C)n1nnnc1C(c1ccc(O)c(OC)c1)N1CCc2ccccc2C1` (stereo not shown): 122%; for `COc1ccc(C(c2nnnn2CCc2ccccc2)N2CCc3ccccc3C2)cc1` (stereo not shown): 114%. The same measure, in the same setting: under `Oc1ccc(C(c2nnnn2C2CCCC2)N2CCc3ccccc3C2)cc1` (stereo not shown) stands 105%. Turning to `COc1ccc(C(c2nnnn2C2CCCCC2)N2CCc3ccccc3C2)c(OC)c1` (stereo not shown), the T/C % in test [1] (test compound 10 uM) is 113%.

Take `COc1ccc(OC)c(C(c2nnnn2C2CCCC2)N2CCc3ccccc3C2)c1` (stereo not shown): the T/C % in test [1] (test compound 10 uM) is 92%. The same measure, in the same setting: under `COCCn1nnnc1C(c1ccc(F)cc1)N1CCc2ccccc2C1` (stereo not shown) stands 96%. In turn, `COCCn1nnnc1C(c1ccc(OC)c(OC)c1)N1CCc2ccccc2C1` (stereo not shown) displayed a T/C % in test [1] (test compound 10 uM) of 98%. `CCC(C)(C)n1nnnc1C(c1cc(OC)ccc1O)N1CCc2ccccc2C1` (stereo not shown) came in with a T/C % in test [1] (test compound 10 uM) of 100%. On the same count and under the same terms, the same measure for `COc1ccc(C(c2nnnn2Cc2ccc(C)cc2)N2CCc3ccccc3C2)cc1` (stereo not shown): 112%; for `Cc1ccc(S(=O)(=O)Cn2nnnc2C(c2ccc(F)cc2)N2CCc3ccccc3C2)cc1` (stereo not shown): 93%. On the same count and under the same terms, under `CCC(C)(C)n1nnnc1C(c1ccccc1OC)N1CCc2ccccc2C1` (stereo not shown) stands 215%; under `COCCn1nnnc1C(c1ccccc1OC)N1CCc2ccccc2C1` (stereo not shown), 107%. Take `Cc1ccc(S(=O)(=O)Cn2nnnc2C(c2ccc(C(F)(F)F)cc2)N2CCc3ccccc3C2)cc1` (stereo not shown): in test [1] (test compound 10 uM), the T/C % came to 102%. Consider `Cc1ccc(S(=O)(=O)Cn2nnnc2C(c2ccc(O)cc2)N2CCc3ccccc3C2)cc1` (stereo not shown), for which the T/C % in test [1] (test compound 5 uM) is recorded as 104%. In the case of `CCCOc1ccccc1C(c1nnnn1C(C)(C)C)N1CCc2ccccc2C1` (stereo not shown) [Example 52], the left shift value in test [2] worked out at 4.3 µM.

As to `CC(C)(C)n1nnnc1C(c1ccccc1Cl)N1CCc2ccccc2C1` (stereo not shown) [Example 53], the left shift value in test [2] is 7.2 µM. On to `Cc1ccccc1C(c1nnnn1C(C)(C)C)N1CCc2ccccc2C1` (stereo not shown) [Example 55], for which the left shift value in test [2] came out at 35 µM. Regarding `CC(C)(C)n1nnnc1C(c1ccccc1)N1CCc2ccccc2C1` (stereo not shown) [drawing 104], in test [1] (test compound 5 uM), the T/C % was 143%. The molecule `c1ccc(CCn2nnnc2C(c2ccccc2)N2CCc3ccccc3C2)cc1` (stereo not shown) [drawing 106] registered a T/C % in test [1] (test compound 10 uM) of 128%.

For the molecule `CC(C)(C)n1nnnc1C(c1ccc(Cl)cc1)N1CCc2ccccc2C1` (stereo not shown) [drawing 118], in test [1] (test compound 5 uM), the T/C % worked out at 113%. On to `c1ccc(C(c2nnnn2C2CCCCC2)N2CCc3ccccc3C2)cc1` (stereo not shown) [drawing 120], for which the T/C % in test [1] (test compound 10 uM) was 112%. Consider `Cc1ccc(C(c2nnnn2Cc2ccccc2)N2CCc3ccccc3C2)cc1` (stereo not shown) [drawing 121], for which the T/C % in test [1] (test compound 10 uM) is 112%. Same read-out and setting: the same measure for `c1ccc(C(c2nnnn2C2CCCCC2)N2CCc3ccccc3C2)cc1` (stereo not shown) [drawing 138]: 98%; for `Cc1ccc(C(c2nnnn2Cc2ccccc2)N2CCc3ccccc3C2)cc1` (stereo not shown) [drawing 140]: 102%. Same read-out and setting: the same measure for `c1ccc(CCn2nnnc2C(c2ccccc2)N2CCc3ccccc3C2)cc1` (stereo not shown) [drawing 142]: 111%.

`Cc1ccc(C(c2nnnn2C(C)(C)C)N2CCc3ccccc3C2)cc1` (stereo not shown) [drawing 143] displayed a T/C % in test [1] (test compound 5 uM) of 112%. Molecule `Cc1ccc(C(c2nnnn2Cc2ccccc2)N2CCc3ccccc3C2)cc1` (stereo not shown) [drawing 151] yielded a T/C % in test [1] (test compound 10 uM) of 103%.
